Reference: the supplement of paper PMC10307832

Columns and labels:
Experiment in all cases: relative viability (nuclei count vs DMSO), 5 days (fraction); higher = more cells survive
NCI-H727 = tested on: NCI-H727
Summary of the method: (§1)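 Five library-drug doses in √10 steps were combined with a fixed anchor-drug dose, or a single drug was given alone, by pin tool to lung cancer cell lines in 1536-well plates the day after seeding. Nuclei were stained and counted after 5 days. Relative viability is the nuclei count in treated wells over that in vehicle wells, taken as the median of duplicate plates.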

NCI-H1651 = tested on: NCI-H1651
Summary of the method: as §1

NCI-H647 = tested on: NCI-H647
Summary of the method: as §1

NCI-H1437 = tested on: NCI-H1437
Summary of the method: as §1

EKVX = tested on: EKVX
Summary of the method: as §1

HCC-15 = tested on: HCC-15
Summary of the method: as §1

HCC-44 = tested on: HCC-44
Summary of the method: as §1

COR-L23 = tested on: COR-L23
Summary of the method: as §1

NCI-H2087 = tested on: NCI-H2087
Summary of the method: as §1

EPLC-272H = tested on: EPLC-272H
Summary of the method: as §1

UMC-11 = tested on: UMC-11
Summary of the method: as §1

ABC-1 = tested on: ABC-1
Summary of the method: as §1

LCLC-103H = tested on: LCLC-103H
Summary of the method: as §1

NCI-H1792 = tested on: NCI-H1792
Summary of the method: as §1

HCC-827 = tested on: HCC-827
Summary of the method: as §1

NCI-H520 = tested on: NCI-H520
Summary of the method: as §1

H3255 = tested on: H3255
Summary of the method: as §1

201T = tested on: 201T
Summary of the method: as §1

NCI-H661 = tested on: NCI-H661
Summary of the method: as §1

NCI-H1975 = tested on: NCI-H1975
Summary of the method: as §1

NCI-H1650 = tested on: NCI-H1650
Summary of the method: as §1

NCI-H358 = tested on: NCI-H358
Summary of the method: as §1

COR-L 105 = tested on: COR-L 105
Summary of the method: as §1

## Cc1cnc(-c2cnc(NCCNc3ccc(C#N)cn3)nc2-c2ccc(Cl)cc2Cl)[nH]1 + Nc1ncn([C@H]2C[C@H](O)[C@@H](CO)O2)c(=O)n1 [Decitabine] (partner 2 µM)
NCI-H727; first compound 0.08 µM
  relative viability: 0.867
NCI-H727; first compound 0.253 µM
  relative viability: 0.937
NCI-H727; first compound 0.8 µM
  relative viability: 0.838
NCI-H727; first compound 2.53 µM
  relative viability: 0.766
NCI-H1651; first compound 0.08 µM
  relative viability: 0.626
NCI-H1651; first compound 0.253 µM
  relative viability: 0.523
NCI-H1651; first compound 0.8 µM
  relative viability: 0.587
NCI-H1651; first compound 2.53 µM
  relative viability: 0.625
NCI-H647; first compound 0.08 µM
  relative viability: 0.381
NCI-H647; first compound 0.253 µM
  relative viability: 0.36
NCI-H647; first compound 0.8 µM
  relative viability: 0.349
NCI-H647; first compound 2.53 µM
  relative viability: 0.297
NCI-H1437; first compound 0.08 µM
  relative viability: 0.538
NCI-H1437; first compound 0.253 µM
  relative viability: 0.511
NCI-H1437; first compound 0.8 µM
  relative viability: 0.558
NCI-H1437; first compound 2.53 µM
  relative viability: 0.563
EKVX; first compound 0.08 µM
  relative viability: 0.386
EKVX; first compound 0.253 µM
  relative viability: 0.315
EKVX; first compound 0.8 µM
  relative viability: 0.34
EKVX; first compound 2.53 µM
  relative viability: 0.351
HCC-15; first compound 0.08 µM
  relative viability: 0.701
HCC-15; first compound 0.253 µM
  relative viability: 0.588
HCC-15; first compound 0.8 µM
  relative viability: 0.756
HCC-15; first compound 2.53 µM
  relative viability: 0.704
HCC-44; first compound 0.08 µM
  relative viability: 0.846
HCC-44; first compound 0.253 µM
  relative viability: 0.561
HCC-44; first compound 0.8 µM
  relative viability: 0.925
HCC-44; first compound 2.53 µM
  relative viability: 1.02
COR-L23; first compound 0.08 µM
  relative viability: 0.521
COR-L23; first compound 0.253 µM
  relative viability: 0.367
COR-L23; first compound 0.8 µM
  relative viability: 0.521
COR-L23; first compound 2.53 µM
  relative viability: 0.548
NCI-H2087; first compound 0.08 µM
  relative viability: 0.282
NCI-H2087; first compound 0.8 µM
  relative viability: 0.286
NCI-H2087; first compound 2.53 µM
  relative viability: 0.204
EPLC-272H; first compound 0.08 µM
  relative viability: 0.436
EPLC-272H; first compound 0.253 µM
  relative viability: 0.353
EPLC-272H; first compound 0.8 µM
  relative viability: 0.352
EPLC-272H; first compound 2.53 µM
  relative viability: 0.467
UMC-11; first compound 0.08 µM
  relative viability: 0.727
UMC-11; first compound 0.253 µM
  relative viability: 0.533
UMC-11; first compound 0.8 µM
  relative viability: 0.314
UMC-11; first compound 2.53 µM
  relative viability: 0.668
ABC-1; first compound 0.08 µM
  relative viability: 1.27
ABC-1; first compound 0.253 µM
  relative viability: 0.871
ABC-1; first compound 0.8 µM
  relative viability: 1.08
ABC-1; first compound 2.53 µM
  relative viability: 0.918
LCLC-103H; first compound 0.08 µM
  relative viability: 0.732
LCLC-103H; first compound 0.253 µM
  relative viability: 0.722
LCLC-103H; first compound 0.8 µM
  relative viability: 0.751
LCLC-103H; first compound 2.53 µM
  relative viability: 0.728
NCI-H1792; first compound 0.08 µM
  relative viability: 0.564
NCI-H1792; first compound 0.253 µM
  relative viability: 0.476
NCI-H1792; first compound 0.8 µM
  relative viability: 0.542
NCI-H1792; first compound 2.53 µM
  relative viability: 0.469
HCC-827; first compound 0.08 µM
  relative viability: 0.328
HCC-827; first compound 0.253 µM
  relative viability: 0.299
HCC-827; first compound 0.8 µM
  relative viability: 0.326
HCC-827; first compound 2.53 µM
  relative viability: 0.287
NCI-H520; first compound 0.08 µM
  relative viability: 0.531
NCI-H520; first compound 0.253 µM
  relative viability: 0.504
NCI-H520; first compound 0.8 µM
  relative viability: 0.563
NCI-H520; first compound 2.53 µM
  relative viability: 0.546
H3255; first compound 0.08 µM
  relative viability: 0.765
H3255; first compound 0.253 µM
  relative viability: 0.531
H3255; first compound 0.8 µM
  relative viability: 0.551
H3255; first compound 2.53 µM
  relative viability: 0.567
201T; first compound 0.08 µM
  relative viability: 0.817
201T; first compound 0.8 µM
  relative viability: 0.828
201T; first compound 2.53 µM
  relative viability: 0.849
NCI-H661; first compound 0.08 µM
  relative viability: 0.609
NCI-H661; first compound 0.253 µM
  relative viability: 0.545
NCI-H661; first compound 0.8 µM
  relative viability: 0.569
NCI-H661; first compound 2.53 µM
  relative viability: 0.551
NCI-H1975; first compound 0.08 µM
  relative viability: 0.349
NCI-H1975; first compound 0.253 µM
  relative viability: 0.361
NCI-H1975; first compound 0.8 µM
  relative viability: 0.409
NCI-H1975; first compound 2.53 µM
  relative viability: 0.314
NCI-H1650; first compound 0.08 µM
  relative viability: 0.478
NCI-H1650; first compound 0.253 µM
  relative viability: 0.259
NCI-H1650; first compound 0.8 µM
  relative viability: 0.397
NCI-H1650; first compound 2.53 µM
  relative viability: 0.443
NCI-H358; first compound 0.08 µM
  relative viability: 0.234
NCI-H358; first compound 0.253 µM
  relative viability: 0.208
NCI-H358; first compound 0.8 µM
  relative viability: 0.248
NCI-H358; first compound 2.53 µM
  relative viability: 0.213
COR-L 105; first compound 0.08 µM
  relative viability: 0.639
COR-L 105; first compound 0.253 µM
  relative viability: 0.619
COR-L 105; first compound 0.8 µM
  relative viability: 0.707
COR-L 105; first compound 2.53 µM
  relative viability: 0.49
